Read-outs that look alike come from different tables or passages of the source.

For data set [1], the system named is OPCs in the corpus callosum. As to conditions: MTX at P21, 28, 35; one month (P63) and 6 months (P203) after cessation; cited from earlier work.
The test system of data set [2] is BDNF protein. As to conditions: mouse, in vivo.
Data set [3] has as its system human iPSC-derived OPCs. As to the kind of experiment: In vitro oligodendrogenesis in human iPSC-derived OPCs (PDGFRa+, MBP+ cells). As to conditions: day 25-35 of OPC induction; 20 ng/ml BDNF or 1000 nM LM22A-4; fixed at day 100. The data set is classed as cell-based. From the text: (§1) Cells were fixed at day 100 following induction and the percent of DAPI+ cells expressing the OPC marker PDGFRa was quantified. […] Green=PDGFRa, white=DAPI. Scale bar=10 μm. […] Cells were fixed at day 100 following induction and the percent of DAPI+ cells expressing the mature oligodendrocyte marker MBP was quantified. […] Red=MBP, white=DAPI. Scale bar=10 μm. […] White-dashed circle=lesioned area in the corpus callosum. Scale bar=20 μm. […] FIG. 5K-FIG. 5M show representative confocal images of proliferating OPCs as shown by EdU incorporation into PDGFRa+ cells in mouse OPC cultures treated with vehicle control (FIG. 5K), 50 nM BDNF (FIG. 5L) and 100 nM LM22A-4 (FIG. 5M).
(§2) Thus, to therapeutically manipulate BDNF-TrkB signaling to promote oligodendrogenesis, we tested a small molecule TrkB partial agonist, LM22A-4. […] To determine if LM22A-4 could promote OPC proliferation and differentiation in a manner similar to BDNF, we compared the effects of recombinant BDNF, LM22A-4 or vehicle control in cultures of murine OPCs.

Data set [4] relates to P6-8 mouse OPCs. Description: Oligodendroglial differentiation (CC1+ cells) in murine OPC cultures. The data set is classed as cell-based. As to conditions: seven-day exposure; BDNF 50 nM, LM22A-4 100 nM daily.
Excerpt: as §1, §2

In data set [5] the test system is P6-8 mouse OPCs. As to the kind of experiment: OPC proliferation index (EdU+/PDGFRa+) in cultures of murine OPCs. To be noted: 24-hour exposure; 0-1000 nM concentration range. Format: cell-based.
Excerpt: as §1, §2

For data set [6], the system named is myelinated axons in the cingulum of the corpus callosum. Format: in vivo, mouse. As to conditions: for g-ratio: LM22A-4 50 mg/kg i.p. daily P38-P62, analysed P63. As to the method: (§3) A single point indicates the g-ratio for a single axon. Approximately 100 axons were quantified and the mean g-ratio determined for each mouse. P-values (indicated on plots) were determined by a Student's t-test, comparing the mean g-ratio on a per mouse basis between groups. […] At P63, the Novel Object Recognition Test was performed in mice previously exposed to MTX chemotherapy or PBS vehicle control and later treated with LM22A-4 or vehicle control. Percent preference for novel object was measured as the percent time spent with novel object over the total time spent with either object (n=4 mice in each group). Statistical significance was determined by a one-sample t-test, where the average percent preference for the novel object for each group was measured against a hypothetical value of 50% chance an animal would interact with either object. […] Scale bars=2 μm. FIG. 6F-FIG. 6G show myelin microstructure data shown in FIG. 6C are shown as scatterplots of g-ratio as a function of axon caliber. […] LM22A-4 increases myelin sheath thickness in control mice. […] LM22A-4 rescues myelin deficits in mice exposed to juvenile MTX in small caliber axons (<0.5 μm; n=7 mice, p=0.005), medium caliber axons (0.5 μm-1.0 μm; n=7, p=0.006) and large caliber axons (>1.0 μm; n=7 mice; p=0.033) compared to mice exposed to MTX but treated with vehicle control. Data in FIG. 6A-FIG. 6E shown as mean±SEM, ns=p>0.05, * p<0.05, ** p<0.01 *** p<0.001 as determined by Student's t-test.
(§4) The chemotherapy-induced neurological syndrome is characterized by decreased attention and memory function and this is recapitulated in the MTX mouse model used here. To test the hypothesis that BDNF to TrkB signaling could promote myelination and improve cognitive dysfunction after chemotherapy exposure, mice were subjected to the above MTX chemotherapy protocol, then treated systemically with the TrkB partial agonist LM22A-4 (50 mg/kg i.p. daily, P38-P62, FIG. 6A) or vehicle control, and analyzed at 24 hours after the final injection (P63) for changes in myelin microstructure and behavioral performance in the novel object recognition test.
(§5) Myelin microstructure in the cingulum of the corpus callosum was examined by transmission electron microscopy. […] The myelin microstructural effects of LM22A-4 thus mimic activity-regulated changes in myelin microstructure, but would lack the circuit-specificity of the activity-regulated response. To test the influence of LM22A-4 on a behavioral measure of attention and memory function, the novel object recognition test was used. After brief introduction to two identical objects, mice are then exposed to one familiar object as well as a completely novel object after a time delay of 5-minutes. […] Treatment with LM22A-4 from P38-P62 rescues performance in the novel object recognition test in MTX treated mice as these mice spend a significant percentage of their time interacting with the novel object over the familiar object (MTX+vehicle: 47.94%±3.50%, p=0.5968 over 50%; PBS+vehicle: 63.37%±4.72%, p=0.0219 over 50%; MTX+LM22A-4: 62.81%±3.31%, p=0.0305 over 50%; PBS+LM22A-4: 68.93%±6.34%, p=0.0317 over 50%; FIG. 6E).

The format of data set [7] is in vivo, mouse. As to conditions: LM22A-4 50 mg/kg i.p. daily P38-P62, tested P63. As to the method:
as §3, §4, §5

Data set [8] deals with lysolecithin-induced demyelination in the corpus callosum. Description: Lysolecithin demyelination model, OPC proliferation and oligodendrogenesis in corpus callosum lesion. The data set is classed as in vivo, mouse.
Excerpt: as §1
To investigate the effects of LM22A-4 treatment on OPC proliferation and oligodendrogenesis in vivo, we next examined mice treated with either LM22A-4 or vehicle control in a well-established demyelination model. Stereotaxic injection of lysolecithin into white matter regions causes a focal, toxic, demyelinating injury; this leads to microglial activation and demyelination, followed by OPC proliferation, recruitment and migration into the lesion area. […]

Data set [9] addresses TrkB receptor (Homo sapiens, UniProt Q16620). As to conditions: previously shown; cited from earlier work.
The conditions of data set [10]: BDNF protein; cited from earlier work.

TrkB receptor, sequence (Q16620 32-822): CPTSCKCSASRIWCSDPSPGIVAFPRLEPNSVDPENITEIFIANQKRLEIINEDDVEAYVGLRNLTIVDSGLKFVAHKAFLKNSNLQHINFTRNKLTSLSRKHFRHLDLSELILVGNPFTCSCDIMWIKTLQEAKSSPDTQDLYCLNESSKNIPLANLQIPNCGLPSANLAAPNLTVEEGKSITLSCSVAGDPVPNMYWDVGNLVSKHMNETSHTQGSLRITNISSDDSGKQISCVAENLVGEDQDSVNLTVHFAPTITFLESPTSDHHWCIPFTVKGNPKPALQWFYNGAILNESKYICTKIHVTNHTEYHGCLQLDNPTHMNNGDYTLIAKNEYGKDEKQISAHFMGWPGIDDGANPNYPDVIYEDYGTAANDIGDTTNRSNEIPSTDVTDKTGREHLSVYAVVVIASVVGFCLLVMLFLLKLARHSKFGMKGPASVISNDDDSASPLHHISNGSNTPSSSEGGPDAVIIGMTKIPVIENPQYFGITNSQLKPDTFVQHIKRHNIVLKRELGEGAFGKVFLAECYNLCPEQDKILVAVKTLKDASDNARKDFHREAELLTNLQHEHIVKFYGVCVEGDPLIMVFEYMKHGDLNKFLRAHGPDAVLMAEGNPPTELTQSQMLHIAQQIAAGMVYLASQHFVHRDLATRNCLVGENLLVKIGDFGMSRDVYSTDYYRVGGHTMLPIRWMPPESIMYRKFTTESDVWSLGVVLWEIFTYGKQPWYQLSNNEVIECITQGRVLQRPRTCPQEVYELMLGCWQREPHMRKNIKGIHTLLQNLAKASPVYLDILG

`CN(Cc1cnc2nc(N)nc(N)c2n1)c1ccc(C(=O)N[C@@H](CCC(=O)O)C(=O)O)cc1` [MTX, methotrexate]: the “OPCs in the corpus callosum after MTX exposure” value in data set [1] is given as “lasting reduction of OPCs in the corpus callosum”. In [2], the corpus callosum BDNF protein levels was 5350 ± 1740 pg/mL and the “decrease in corpus callosum BDNF protein levels compared to PBS vehicle controls” value is listed as “more than three-fold decrease”.
For “BDNF: brain-derived neurotrophic factor, recombinant protein, ligand of TrkB”, the “in vitro oligodendrogenesis in human oligodendroglial lineage cells” value in data set [3] is given as “similarly promote in vitro oligodendrogenesis”. In addition, the “oligodendroglial differentiation, cells expressing CC1 relative to vehicle control” value in data set [4] is “similarly promoted oligodendroglial differentiation”. In data set [5], the “proliferative index of OPCs (fraction of total cells in S phase, co-localization of PDGFRa with EdU)” value is on record as “increased the proliferative index”.
`O=C(NCCO)c1cc(C(=O)NCCO)cc(C(=O)NCCO)c1` [LM22A-4, N,N′,N″-tris(2-hydroxyethyl)-1,3,5-benzenetricarboxamide]: the “in vitro oligodendrogenesis in human oligodendroglial lineage cells” value in data set [3] is “similarly promote in vitro oligodendrogenesis”. In addition, the g-ratio amounted to 0.733±0.017 in [6] (MTX-exposed mice (100 mg/kg i.p. P21, 28, 35)) and 0.713±0.010 in [6] (PBS-exposed mice). The “myelin thickness by axon caliber” value in data set [6] (MTX-treated mice, small (<0.5 μm), medium (0.5-1.0 μm), large (>1.0 μm) caliber axons) was “increased myelin thickness in small, medium and large caliber axons”. Further, the “percent preference for novel object” value in data set [7] (MTX-exposed mice) was 62.81%±3.31%; in data set [7] (PBS-exposed mice), 68.93%±6.34%. Moreover, the “density of EdU+/PDGFRa+ proliferating OPCs in lesioned area” value in [8] (50 mg/kg i.p. for one week from day 7 after lysolecithin injection) was 1132±67.1 cells/mm3. Besides, the “density of EdU+/CC1+ newly generated mature oligodendrocytes in lesioned area” value in [8] (50 mg/kg, day 7 to 21 following lysolecithin injury) was 764.8±141.6 cells/mm3. For the same molecule, the “oligodendroglial differentiation, cells expressing CC1 relative to vehicle control” value in data set [4] was “similarly promoted oligodendroglial differentiation”. The “proliferative index of OPCs (fraction of total cells in S phase, co-localization of PDGFRa with EdU)” value in [5] is “similarly increased the proliferative index of OPCs in the low nanomolar range and in a dose-dependent manner”. Also, in data set [9], the TrkB receptor activation result was “activate the TrkB receptor specifically”.

B1: BDNF: brain-derived neurotrophic factor, recombinant protein, ligand of TrkB (protein, UniProt P23560 19-247, looked up)
Neurotrophic factor BDNF …: APMKEANIRGQGGLAYPGVRTHGTLESVNGPKAGSRGLTSLADTFEHVIEELLDEDQKVRPNEENNKDADLYTSRVMLSSQVPLEPPLLFLLEEYKNYLDAANMSMRVRRHSDPARRGELSVCDSISEWVTAADKKTAVDMSGGTVTVLEKVPVSKGQLKQYFYETKCNPMGYTKEGCRGIDKRHWNSQCRTTQSYVRALTMDSKKRIGWRFIRIDTSCVCTLTIKRGR
As to B1, in data set [10], the blood-brain-barrier penetration entry was “poor blood-brain-barrier penetration” and the plasma half-life result was “short plasma half-life”.

The values are drawn from US20220031641A1, “COMPOSITIONS AND METHODS FOR TREATING AND PREVENTING COGNITIVE DYSFUNCTION” (Pharmatrophix, Inc., priority 2019, published 2022).
